According to the supplement of paper PMC7017272:
± gives the standard deviation of the averaged measurements.

Key:
Details in all cases: treatment time: 3 days
UT-SCC-24A [1] = test: maximal % inhibition of viability relative to DMSO; higher = stronger effect
Procedure: (§1)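 HNSCC cell lines (500 cells/well, 384-well) were cultured on plastic, on top of (2D) or embedded (3D) in Matrigel or human leiomyoma matrix Myogel (500 ug/mL; Myogel 3D mixed with rat collagen I). Cells were treated for 3 days with 5 ten-fold concentrations of each drug, and viability was read by CellTiter-Glo. Viability was normalised to DMSO (0% inhibition) and 100 uM benzethonium chloride (100% inhibition) controls and fitted with the FIMM DSRT pipeline to give IC50 (nM), maximal % inhibition and the drug sensitivity score (DSS). Suffixes _1/_2/_3 on drug names are replicates.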

UT-SCC-106A = test: drug sensitivity score (DSS); higher = more sensitive; extreme values may be limits of the assay
In short: (§2)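 Viability of HPV-negative HNSCC cell lines was measured by CellTiter-Glo 2.0 luminescence. Cells were seeded at 500 cells/well in 384-well plates on plastic, on Matrigel- or Myogel-coated wells (500 µg/mL), or embedded in Matrigel or Myogel plus rat collagen I, then given compounds at five 10-fold concentrations for 3 days, with signals normalised to vehicle (0.1% DMSO) and cell-killing control wells. Fitting of percent-inhibition dose–response curves in the FIMM pipeline yielded IC50, maximal inhibition and drug sensitivity score.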

UT-SCC-14 = test: as above
In short: as §2

UT-SCC-24B = test: as above
In short: as §2

UT-SCC-28 [2] = test: as above
In short: as §2

UT-SCC-40 = test: as above
In short: as §2

UT-SCC-42A [3] = test: as above
In short: as §2

UT-SCC-42B = test: as above
In short: as §2

UT-SCC-44 = test: as above
In short: as §2

UT-SCC-73 = test: as above
In short: as §2

UT-SCC-81 [4] = test: as above
In short: as §2

UT-SCC-8 = test: as above
In short: as §2

UT-SCC-28 [5] = test: relative IC50 (midpoint of the fitted curve; maximal inhibition may be below 50%); higher = less potent
In short: as §2

UT-SCC-42A [6] = test: as above
In short: as §2

UT-SCC-81 [7] = test: as above
In short: as §2

UT-SCC-24A [8] = test: relative IC50 (midpoint of the fitted curve; maximal inhibition may be below 50%); higher = less potent
Procedure: as §1

[9] = culture condition: embedded in Matrigel
[10] = culture condition: embedded in Myogel + collagen I
[11] = culture condition: on top of Matrigel
[12] = culture condition: on top of Myogel
[13] = culture condition: plastic 2D (no matrix)

relative IC50 (UT-SCC-28 [5]; [9]): 3.42 µM
relative IC50 (UT-SCC-28 [5]; [10]): 1.51 µM
relative IC50 (UT-SCC-28 [5]; [11]): 1.63 µM
relative IC50 (UT-SCC-28 [5]; [13]): 1.76 µM
relative IC50 (UT-SCC-42A [6]; [9]): 0.253 µM
relative IC50 (UT-SCC-42A [6]; [10]): 2.02 µM
relative IC50 (UT-SCC-42A [6]; [11]): 0.205 µM
relative IC50 (UT-SCC-42A [6]; [12]): 1.27 µM
relative IC50 (UT-SCC-42A [6]; [13]): 0.238 µM
relative IC50 (UT-SCC-81 [7]; [9]): 0.0365 µM
relative IC50 (UT-SCC-81 [7]; [10]): 1.51 µM
relative IC50 (UT-SCC-81 [7]; [11]): 0.052 µM
relative IC50 (UT-SCC-81 [7]; [12]): 1.59 µM
relative IC50 (UT-SCC-81 [7]; [13]): 0.0696 µM
relative IC50 (UT-SCC-24A [8]; [9]): 0.0381 µM
relative IC50 (UT-SCC-24A [8]; [10]): 1.01 µM
relative IC50 (UT-SCC-24A [8]; [11]): 0.0848 µM
relative IC50 (UT-SCC-24A [8]; [12]): 1.63 µM
relative IC50 (UT-SCC-24A [8]; [13]): 0.0831 µM
Compound: C=CC(=O)Nc1cc2c(Nc3ccc(F)c(Cl)c3)ncnc2cc1OCCCN1CCOCC1 [Canertinib]
maximal % inhibition of viability (UT-SCC-24A [1]; [9]): 99.57 ± 0.38%
maximal % inhibition of viability (UT-SCC-24A [1]; [10]): 99.17 ± 0.74%
maximal % inhibition of viability (UT-SCC-24A [1]; [11]): 99.7 ± 0.36%
maximal % inhibition of viability (UT-SCC-24A [1]; [12]): 99 ± 0.87%
maximal % inhibition of viability (UT-SCC-24A [1]; [13]): 99.5 ± 0.62%
drug sensitivity score (UT-SCC-106A; [9]): 15.8 ± 1.5 DSS
drug sensitivity score (UT-SCC-106A; [10]): 5.8 ± 0.1 DSS
drug sensitivity score (UT-SCC-106A; [11]): 19.2 ± 1.5 DSS
drug sensitivity score (UT-SCC-106A; [12]): 7.13 ± 0.71 DSS
drug sensitivity score (UT-SCC-106A; [13]): 21 ± 0.93 DSS
drug sensitivity score (UT-SCC-14; [9]): 27 ± 0.3 DSS
drug sensitivity score (UT-SCC-14; [10]): 11.2 ± 2.8 DSS
drug sensitivity score (UT-SCC-14; [11]): 26.6 ± 0.94 DSS
drug sensitivity score (UT-SCC-14; [12]): 16.5 ± 2.1 DSS
drug sensitivity score (UT-SCC-14; [13]): 25.6 ± 1.9 DSS
drug sensitivity score (UT-SCC-24B; [9]): 17.8 ± 0.7 DSS
drug sensitivity score (UT-SCC-24B; [10]): 9.13 ± 0.25 DSS
drug sensitivity score (UT-SCC-24B; [11]): 18.1 ± 0.57 DSS
drug sensitivity score (UT-SCC-24B; [12]): 9.17 ± 0.12 DSS
drug sensitivity score (UT-SCC-24B; [13]): 26.2 ± 0.55 DSS
drug sensitivity score (UT-SCC-28 [2]; [9]): 4.2 ± 0.5 DSS
drug sensitivity score (UT-SCC-28 [2]; [10]): 8.6 ± 0.27 DSS
drug sensitivity score (UT-SCC-28 [2]; [11]): 7.8 ± 0.6 DSS
drug sensitivity score (UT-SCC-28 [2]; [13]): 7 ± 0.56 DSS
drug sensitivity score (UT-SCC-40; [9]): 27.4 ± 1.1 DSS
drug sensitivity score (UT-SCC-40; [10]): 10.4 ± 1.9 DSS
drug sensitivity score (UT-SCC-40; [11]): 26.2 ± 0.62 DSS
drug sensitivity score (UT-SCC-40; [12]): 10 ± 1.6 DSS
drug sensitivity score (UT-SCC-40; [13]): 18.6 ± 0.5 DSS
drug sensitivity score (UT-SCC-42A [3]; [9]): 17.1 ± 0.32 DSS
drug sensitivity score (UT-SCC-42A [3]; [10]): 7.67 ± 1.3 DSS
drug sensitivity score (UT-SCC-42A [3]; [11]): 18.4 ± 1.2 DSS
drug sensitivity score (UT-SCC-42A [3]; [12]): 9.8 ± 0.98 DSS
drug sensitivity score (UT-SCC-42A [3]; [13]): 17.9 ± 0.98 DSS
drug sensitivity score (UT-SCC-42B; [9]): 23.7 ± 2.4 DSS
drug sensitivity score (UT-SCC-42B; [11]): 16.9 ± 2 DSS
drug sensitivity score (UT-SCC-42B; [12]): 6.83 ± 0.35 DSS
drug sensitivity score (UT-SCC-42B; [13]): 12 ± 1.2 DSS
drug sensitivity score (UT-SCC-44; [9]): 4 ± 0.3 DSS
drug sensitivity score (UT-SCC-44; [10]): 6.57 ± 1.5 DSS
drug sensitivity score (UT-SCC-44; [11]): 8.2 ± 0.27 DSS
drug sensitivity score (UT-SCC-44; [12]): 7.47 ± 2.1 DSS
drug sensitivity score (UT-SCC-44; [13]): 7.63 ± 1.1 DSS
drug sensitivity score (UT-SCC-73; [9]): 7.6 ± 1.1 DSS
drug sensitivity score (UT-SCC-73; [10]): 7.73 ± 2.5 DSS
drug sensitivity score (UT-SCC-73; [11]): 8.83 ± 0.23 DSS
drug sensitivity score (UT-SCC-73; [12]): 8.53 ± 0.75 DSS
drug sensitivity score (UT-SCC-73; [13]): 8.87 ± 0.15 DSS
drug sensitivity score (UT-SCC-81 [4]; [9]): 29.4 ± 1.3 DSS
drug sensitivity score (UT-SCC-81 [4]; [10]): 9.43 ± 3.1 DSS
drug sensitivity score (UT-SCC-81 [4]; [11]): 27.53 ± 0.12 DSS
drug sensitivity score (UT-SCC-81 [4]; [12]): 8.9 ± 0.27 DSS
drug sensitivity score (UT-SCC-81 [4]; [13]): 26.1 ± 0.51 DSS
drug sensitivity score (UT-SCC-8; [9]): 29.83 ± 0.058 DSS
drug sensitivity score (UT-SCC-8; [10]): 4.77 ± 0.81 DSS
drug sensitivity score (UT-SCC-8; [11]): 29.7 ± 0.64 DSS
drug sensitivity score (UT-SCC-8; [12]): 11.6 ± 2.1 DSS
drug sensitivity score (UT-SCC-8; [13]): 29 ± 0.85 DSS
